Test results as given in ChEMBL document CHEMBL3779781, “New direct inhibitors of InhA with antimycobacterial activity based on a tetrahydropyran scaffold” (Eur J Med Chem, 2016).
In brackets after ≈: the same amount, converted by molar mass.

system: Mycobacterium tuberculosis; test: Antimycobacterial activity against Mycobacterium bovis BCG after 2 weeks; assay type: functional; details: variant bovis BCG, 336 h

SMILES | MIC [µg/mL]
NC[C@H]1O[C@H](O[C@H]2[C@H](O)[C@@H](O[C@H]3O[C@H](CO)[C@@H](O)[C@H](N)[C@H]3O)[C@H](N)C[C@@H]2N)[C@H](O)[C@@H](O)[C@@H]1O [KANAMYCIN] | 0.6 (≈ 1.24 µM)
Cc1cc(C)n(Cc2ccc(C(=O)NCC3(c4nc(-c5ccccc5)cs4)CCOCC3)cc2)n1 | 7.8 (≈ 16 µM)
NNC(=O)c1ccncc1 [ISONIAZID] | 0.75 (≈ 5.47 µM)

system: Mycobacterium tuberculosis; test: Antimycobacterial activity against Mycobacterium bovis BCG overexpressing InhA after 2 weeks; assay type: functional; details: variant bovis BCG, 336 h

SMILES | MIC [µg/mL]
NC[C@H]1O[C@H](O[C@H]2[C@H](O)[C@@H](O[C@H]3O[C@H](CO)[C@@H](O)[C@H](N)[C@H]3O)[C@H](N)C[C@@H]2N)[C@H](O)[C@@H](O)[C@@H]1O [KANAMYCIN] | 0.6 (≈ 1.24 µM)
Cc1cc(C)n(Cc2ccc(C(=O)NCC3(c4nc(-c5ccccc5)cs4)CCOCC3)cc2)n1 | 31.3 (≈ 64.3 µM)
NNC(=O)c1ccncc1 [ISONIAZID] | > 16

system: Mycobacterium tuberculosis; test: Ratio of MIC for Mycobacterium bovis BCG overexpressing InhA to MIC for Mycobacterium bovis BCG; assay type: functional, variant bovis BCG; details: not given

SMILES | Ratio
NC[C@H]1O[C@H](O[C@H]2[C@H](O)[C@@H](O[C@H]3O[C@H](CO)[C@@H](O)[C@H](N)[C@H]3O)[C@H](N)C[C@@H]2N)[C@H](O)[C@@H](O)[C@@H]1O [KANAMYCIN] | 1
Cc1cc(C)n(Cc2ccc(C(=O)NCC3(c4nc(-c5ccccc5)cs4)CCOCC3)cc2)n1 | 4
NNC(=O)c1ccncc1 [ISONIAZID] | >21
